According to the supplement of paper PMC10307832:

Tests used:
Experiment in all cases: relative viability (nuclei count vs DMSO), 5 days (fraction); higher = more cells survive
201T = system: 201T
Summary of the method: (§1)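 Relative viability equals treated-well nuclei counts divided by vehicle-well nuclei counts. Counts came from 4× images of lung cancer cell lines grown in 1536-well plates for 5 days after pin-tool dosing on the day after seeding. Dosing used one drug alone or a fixed anchor-drug dose plus five library-drug doses (not always all listed) in √10 steps, and values are medians of duplicate plates.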

BEN = system: BEN
Summary of the method: as §1

CAL-12T = system: CAL-12T
Summary of the method: as §1

COR-L 105 = system: COR-L 105
Summary of the method: as §1

H3255 = system: H3255
Summary of the method: as §1

HARA = system: HARA
Summary of the method: as §1

HCC-15 = system: HCC-15
Summary of the method: as §1

HCC-827 = system: HCC-827
Summary of the method: as §1

LC-2-ad = system: LC-2-ad
Summary of the method: as §1

LCLC-103H = system: LCLC-103H
Summary of the method: as §1

LK-2 = system: LK-2
Summary of the method: as §1

LU99A = system: LU99A
Summary of the method: as §1

LXF-289 = system: LXF-289
Summary of the method: as §1

NCI-H1437 = system: NCI-H1437
Summary of the method: as §1

NCI-H1651 = system: NCI-H1651
Summary of the method: as §1

NCI-H1792 = system: NCI-H1792
Summary of the method: as §1

NCI-H2085 = system: NCI-H2085
Summary of the method: as §1

NCI-H2228 = system: NCI-H2228
Summary of the method: as §1

NCI-H23 = system: NCI-H23
Summary of the method: as §1

NCI-H2405 = system: NCI-H2405
Summary of the method: as §1

NCI-H322M = system: NCI-H322M
Summary of the method: as §1

RERF-LC-KJ = system: RERF-LC-KJ
Summary of the method: as §1

UMC-11 = system: UMC-11
Summary of the method: as §1

O=C(O)CCCCC(CCSCc1ccccc1)SCc1ccccc1 (stereo not given) [CPI-613] + C[C@@H](Oc1cc(-c2cnn(C3CCNCC3)c2)cnc1N)c1c(Cl)ccc(F)c1Cl [Crizotinib] (partner 1 µM) gave a relative viability (201T; first compound 5 µM) of 1.04, a relative viability (201T; first compound 15.81 µM) of 0.989 and a relative viability (201T; first compound 50 µM) of 0.94. It also gave a relative viability (201T; first compound 158.11 µM) of 0.93, a relative viability (201T; first compound 500 µM) of 0.984 and a relative viability (BEN; first compound 5 µM) of 0.802. For the same compound, the relative viability (BEN; first compound 15.81 µM) was 0.739, the relative viability (BEN; first compound 50 µM) was 0.807 and the relative viability (BEN; first compound 158.11 µM) was 0.743. For the same compound, the relative viability (BEN; first compound 500 µM) was 0.769, the relative viability (CAL-12T; first compound 5 µM) was 0.596 and the relative viability (CAL-12T; first compound 15.81 µM) was 0.504. For the same compound, the relative viability (CAL-12T; first compound 50 µM) was 0.471, the relative viability (CAL-12T; first compound 158.11 µM) was 0.0667 and the relative viability (CAL-12T; first compound 500 µM) was 0.0085. The relative viability (COR-L 105; first compound 5 µM) was 0.727, the relative viability (COR-L 105; first compound 15.81 µM) was 0.772 and the relative viability (COR-L 105; first compound 50 µM) was 0.753. The relative viability (COR-L 105; first compound 158.11 µM) was 0.242, the relative viability (COR-L 105; first compound 500 µM) was 0.169 and the relative viability (H3255; first compound 5 µM) was 0.773. For the same compound, the relative viability (H3255; first compound 15.81 µM) was 0.894, the relative viability (H3255; first compound 50 µM) was 0.914 and the relative viability (H3255; first compound 158.11 µM) was 0.831. The relative viability (H3255; first compound 500 µM) was 0.742, the relative viability (HARA; first compound 5 µM) was 1.04 and the relative viability (HARA; first compound 15.81 µM) was 1.09. The relative viability (HARA; first compound 50 µM) was 1.02, the relative viability (HARA; first compound 158.11 µM) was 0.397 and the relative viability (HARA; first compound 500 µM) was 0.247. The relative viability (HCC-15; first compound 5 µM) was 0.772, the relative viability (HCC-15; first compound 15.81 µM) was 0.746 and the relative viability (HCC-15; first compound 50 µM) was 0.776. It also gave a relative viability (HCC-15; first compound 158.11 µM) of 0.367, a relative viability (HCC-15; first compound 500 µM) of 0.326 and a relative viability (HCC-827; first compound 5 µM) of 0.878. The relative viability (HCC-827; first compound 15.81 µM) was 0.906, the relative viability (HCC-827; first compound 50 µM) was 0.843 and the relative viability (HCC-827; first compound 158.11 µM) was 0.412. It also gave a relative viability (HCC-827; first compound 500 µM) of 0.225, a relative viability (LC-2-ad; first compound 5 µM) of 0.444 and a relative viability (LC-2-ad; first compound 15.81 µM) of 0.432. It also gave a relative viability (LC-2-ad; first compound 50 µM) of 0.417, a relative viability (LC-2-ad; first compound 158.11 µM) of 0.529 and a relative viability (LC-2-ad; first compound 500 µM) of 0.51. It also gave a relative viability (LCLC-103H; first compound 5 µM) of 1.11, a relative viability (LCLC-103H; first compound 15.81 µM) of 1.1 and a relative viability (LCLC-103H; first compound 50 µM) of 0.917. The relative viability (LCLC-103H; first compound 158.11 µM) was 0.855, the relative viability (LCLC-103H; first compound 500 µM) was 0.861 and the relative viability (LK-2; first compound 5 µM) was 0.225. The relative viability (LK-2; first compound 15.81 µM) was 0.191, the relative viability (LK-2; first compound 50 µM) was 0.227 and the relative viability (LK-2; first compound 158.11 µM) was 0.219. It also gave a relative viability (LK-2; first compound 500 µM) of 0.249, a relative viability (LU99A; first compound 5 µM) of 0.618 and a relative viability (LU99A; first compound 15.81 µM) of 0.546. The relative viability (LU99A; first compound 50 µM) was 0.589, the relative viability (LU99A; first compound 158.11 µM) was 0.168 and the relative viability (LU99A; first compound 500 µM) was 0.0638. The relative viability (LXF-289; first compound 5 µM) was 0.776, the relative viability (LXF-289; first compound 15.81 µM) was 0.764 and the relative viability (LXF-289; first compound 50 µM) was 0.73. For the same compound, the relative viability (LXF-289; first compound 158.11 µM) was 0.295, the relative viability (LXF-289; first compound 500 µM) was 0.0479 and the relative viability (NCI-H1437; first compound 5 µM) was 0.96. It also gave a relative viability (NCI-H1437; first compound 15.81 µM) of 0.794, a relative viability (NCI-H1437; first compound 50 µM) of 0.857 and a relative viability (NCI-H1437; first compound 158.11 µM) of 0.229. For the same compound, the relative viability (NCI-H1437; first compound 500 µM) was 0.0274, the relative viability (NCI-H1651; first compound 5 µM) was 0.838 and the relative viability (NCI-H1651; first compound 15.81 µM) was 0.769. For the same compound, the relative viability (NCI-H1651; first compound 50 µM) was 0.922, the relative viability (NCI-H1651; first compound 158.11 µM) was 0.818 and the relative viability (NCI-H1651; first compound 500 µM) was 0.927. For the same compound, the relative viability (NCI-H1792; first compound 5 µM) was 0.937, the relative viability (NCI-H1792; first compound 15.81 µM) was 0.909 and the relative viability (NCI-H1792; first compound 50 µM) was 0.914. For the same compound, the relative viability (NCI-H1792; first compound 158.11 µM) was 0.91, the relative viability (NCI-H1792; first compound 500 µM) was 0.753 and the relative viability (NCI-H2085; first compound 5 µM) was 0.786. The relative viability (NCI-H2085; first compound 15.81 µM) was 0.886, the relative viability (NCI-H2085; first compound 50 µM) was 0.839 and the relative viability (NCI-H2085; first compound 158.11 µM) was 0.415. The relative viability (NCI-H2085; first compound 500 µM) was 0.231, the relative viability (NCI-H2228; first compound 5 µM) was 0.513 and the relative viability (NCI-H2228; first compound 15.81 µM) was 0.481. It also gave a relative viability (NCI-H2228; first compound 50 µM) of 0.52, a relative viability (NCI-H2228; first compound 158.11 µM) of 0.203 and a relative viability (NCI-H2228; first compound 500 µM) of 0.0468. It also gave a relative viability (NCI-H23; first compound 5 µM) of 0.542, a relative viability (NCI-H23; first compound 15.81 µM) of 0.563 and a relative viability (NCI-H23; first compound 50 µM) of 0.488. For the same compound, the relative viability (NCI-H23; first compound 158.11 µM) was 0.189, the relative viability (NCI-H23; first compound 500 µM) was 0.0618 and the relative viability (NCI-H2405; first compound 5 µM) was 0.855. For the same compound, the relative viability (NCI-H2405; first compound 15.81 µM) was 0.842, the relative viability (NCI-H2405; first compound 50 µM) was 0.825 and the relative viability (NCI-H2405; first compound 158.11 µM) was 0.828. It also gave a relative viability (NCI-H2405; first compound 500 µM) of 0.829, a relative viability (NCI-H322M; first compound 5 µM) of 0.917 and a relative viability (NCI-H322M; first compound 15.81 µM) of 0.917. For the same compound, the relative viability (NCI-H322M; first compound 50 µM) was 1, the relative viability (NCI-H322M; first compound 158.11 µM) was 0.996 and the relative viability (NCI-H322M; first compound 500 µM) was 1.01. The relative viability (RERF-LC-KJ; first compound 5 µM) was 0.841, the relative viability (RERF-LC-KJ; first compound 15.81 µM) was 0.789 and the relative viability (RERF-LC-KJ; first compound 50 µM) was 0.76. For the same compound, the relative viability (RERF-LC-KJ; first compound 158.11 µM) was 0.876, the relative viability (RERF-LC-KJ; first compound 500 µM) was 0.268 and the relative viability (UMC-11; first compound 5 µM) was 0.578. It also gave a relative viability (UMC-11; first compound 15.81 µM) of 0.668, a relative viability (UMC-11; first compound 50 µM) of 0.696 and a relative viability (UMC-11; first compound 158.11 µM) of 0.298. For the same compound, the relative viability (UMC-11; first compound 500 µM) was 0.0636.
